ChEMBL document CHEMBL3525930 (Drug Metab Dispos, 2012)
Blank lines part the entries; values can stand above or below the molecule they belong to.

Columns and labels:
Hepatocyte [1] = experiment: Cytotoxicity against human hepatocytes assessed as cell viability relative to control; assay type: cell-based
Cytochrome P450 2B6 [2] = target: T1, Cytochrome P450 2B6 (Homo sapiens, UniProt P20813); experiment: Inhibition of CYP2B6 in human liver microsomes incubated for 3 mins prior to NADPH addition measured after 10 mins by LC-MS analysis; assay type: ADME
T1 sequence (P20813 whole entry): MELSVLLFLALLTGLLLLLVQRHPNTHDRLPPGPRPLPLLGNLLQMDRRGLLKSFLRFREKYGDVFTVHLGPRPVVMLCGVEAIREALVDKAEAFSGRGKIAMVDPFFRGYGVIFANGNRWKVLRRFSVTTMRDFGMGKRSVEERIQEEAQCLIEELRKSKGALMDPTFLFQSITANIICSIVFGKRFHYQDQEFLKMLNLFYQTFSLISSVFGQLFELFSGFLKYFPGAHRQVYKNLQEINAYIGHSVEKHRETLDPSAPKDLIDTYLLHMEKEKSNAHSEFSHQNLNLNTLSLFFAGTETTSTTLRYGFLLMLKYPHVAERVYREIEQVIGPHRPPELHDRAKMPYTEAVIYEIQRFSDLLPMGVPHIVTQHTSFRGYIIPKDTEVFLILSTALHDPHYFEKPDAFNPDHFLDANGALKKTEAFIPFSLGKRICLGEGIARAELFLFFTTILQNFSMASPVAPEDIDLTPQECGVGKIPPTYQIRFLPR

Cytochrome P450 2B6 [3] = target: T1, Cytochrome P450 2B6; experiment: Inhibition of recombinant CYP2B6 (unknown origin) incubated for 3 mins prior to NADPH addition measured after 10 mins by LC-MS analysis; assay type: ADME
Cytochrome P450 3A4 [4] = target: T2, Cytochrome P450 3A4 (Homo sapiens, UniProt P08684); experiment: Inhibition of CYP3A4 in human liver microsomes incubated for 3 mins prior to NADPH addition measured after 3 mins by LC-MS analysis; assay type: ADME
T2 sequence (P08684 whole entry): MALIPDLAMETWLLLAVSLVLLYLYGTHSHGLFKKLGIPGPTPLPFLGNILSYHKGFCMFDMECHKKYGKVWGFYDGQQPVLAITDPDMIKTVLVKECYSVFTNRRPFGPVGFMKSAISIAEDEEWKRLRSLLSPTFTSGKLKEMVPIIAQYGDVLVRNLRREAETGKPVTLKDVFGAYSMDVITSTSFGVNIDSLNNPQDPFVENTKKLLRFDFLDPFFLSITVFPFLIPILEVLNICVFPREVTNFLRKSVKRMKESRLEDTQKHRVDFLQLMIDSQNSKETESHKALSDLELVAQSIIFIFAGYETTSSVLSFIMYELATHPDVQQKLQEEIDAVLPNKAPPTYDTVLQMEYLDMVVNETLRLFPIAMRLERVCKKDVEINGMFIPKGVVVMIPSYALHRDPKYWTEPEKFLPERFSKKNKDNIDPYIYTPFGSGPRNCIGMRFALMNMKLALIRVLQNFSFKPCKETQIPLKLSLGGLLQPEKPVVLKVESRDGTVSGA

Cytochrome P450 3A4 [5] = target: T2, Cytochrome P450 3A4; experiment: Inhibition of recombinant CYP3A4 (unknown origin) incubated for 3 mins prior to NADPH addition measured after 3 mins by LC-MS analysis; assay type: ADME
CYP2B6 [6] = target: CYP2B6 (Homo sapiens, UniProt P20813); experiment: (§1) Induction of CYP2B6 in human hepatocytes at 10 uM after 72 hrs relative to vehicle-treated control; assay type: ADME, cell-based, Hepatocyte; conditions: read-out: FC
Cytochrome P450 2B6 [7] = target: T1, Cytochrome P450 2B6; experiment: as §1; assay type: ADME, cell-based, Hepatocyte; conditions: 72 h, 10 µM
CYP3A4 [8] = target: CYP3A4 (Homo sapiens, UniProt P08684); experiment: (§2) Induction of CYP3A4 in human hepatocytes at 10 uM after 72 hrs relative to vehicle-treated control
Sequence of CYP3A4 (Homo sapiens, UniProt P08684) (P08684 whole entry): as above

Cytochrome P450 3A4 [9] = target: T2, Cytochrome P450 3A4; experiment: as §2; conditions: 72 h, 10 µM
CYP2C9 [10] = target: CYP2C9 (Homo sapiens, UniProt P11712); experiment: Induction of CYP2C9 in human hepatocytes at 10 uM after 72 hrs relative to vehicle-treated control; assay type: ADME, cell-based, Hepatocyte; conditions: read-out: FC
Sequence of CYP2C9 (Homo sapiens, UniProt P11712) (P11712 whole entry): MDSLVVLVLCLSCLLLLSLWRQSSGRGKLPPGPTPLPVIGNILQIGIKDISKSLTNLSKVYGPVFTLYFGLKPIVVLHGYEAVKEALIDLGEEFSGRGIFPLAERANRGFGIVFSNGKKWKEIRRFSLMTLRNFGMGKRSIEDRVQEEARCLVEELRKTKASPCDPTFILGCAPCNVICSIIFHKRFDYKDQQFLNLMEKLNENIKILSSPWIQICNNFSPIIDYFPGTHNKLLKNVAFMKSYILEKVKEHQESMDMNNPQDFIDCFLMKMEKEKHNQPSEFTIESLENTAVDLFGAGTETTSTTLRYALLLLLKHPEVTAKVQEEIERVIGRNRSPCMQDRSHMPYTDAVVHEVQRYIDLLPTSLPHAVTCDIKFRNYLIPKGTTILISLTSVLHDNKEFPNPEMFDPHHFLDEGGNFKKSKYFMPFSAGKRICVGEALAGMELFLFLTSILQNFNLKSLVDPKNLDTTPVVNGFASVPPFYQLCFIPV

CYP2B6 [11] = experiment: (§3) Induction of CYP2B6 mRNA expression in human hepatocytes at 10 uM after 72 hrs by RT-PCR analysis relative to vehicle-treated control; assay type: ADME, cell-based, Hepatocyte; conditions: read-out: FC
Hepatocyte [12] = experiment: as §3; assay type: ADME, cell-based; conditions: 72 h, 10 µM
CYP3A4 [13] = experiment: (§4) Induction of CYP3A4 mRNA expression in human hepatocytes at 10 uM after 72 hrs by RT-PCR analysis relative to vehicle-treated control
Hepatocyte [14] = experiment: as §4; conditions: 72 h, 10 µM
CYP2C9 [15] = experiment: Induction of CYP2C9 mRNA expression in human hepatocytes at 10 uM after 72 hrs by RT-PCR analysis relative to vehicle-treated control; assay type: ADME, cell-based, Hepatocyte; conditions: read-out: FC
CYP1A2 = experiment: Induction of CYP1A2 mRNA expression in human hepatocytes at 10 uM after 72 hrs by RT-PCR analysis relative to vehicle-treated control; assay type: ADME, cell-based, Hepatocyte; conditions: read-out: FC
CYP2A6 = experiment: Induction of CYP2A6 mRNA expression in human hepatocytes at 10 uM after 72 hrs by RT-PCR analysis relative to vehicle-treated control; assay type: ADME, cell-based, Hepatocyte; conditions: read-out: FC
CYP2C8 = experiment: Induction of CYP2C8 mRNA expression in human hepatocytes at 10 uM after 72 hrs by RT-PCR analysis relative to vehicle-treated control; assay type: ADME, cell-based, Hepatocyte; conditions: read-out: FC
CYP2C19 = experiment: Induction of CYP2C19 mRNA expression in human hepatocytes at 10 uM after 72 hrs by RT-PCR analysis relative to vehicle-treated control; assay type: ADME, cell-based, Hepatocyte; conditions: read-out: FC
CYP3A5 = experiment: Induction of CYP3A5 mRNA expression in human hepatocytes at 10 uM after 72 hrs by RT-PCR analysis relative to vehicle-treated control
CYP2D6 = experiment: Induction of CYP2D6 mRNA expression in human hepatocytes at 10 uM after 72 hrs by RT-PCR analysis relative to vehicle-treated control; assay type: ADME, cell-based, Hepatocyte; conditions: read-out: FC
CYP2E1 = experiment: Induction of CYP2E1 mRNA expression in human hepatocytes at 10 uM after 72 hrs by RT-PCR analysis relative to vehicle-treated control; assay type: ADME, cell-based, Hepatocyte; conditions: read-out: FC
UGT1A9 = experiment: Induction of UGT1A9 mRNA expression in human hepatocytes at 10 uM after 72 hrs by RT-PCR analysis relative to vehicle-treated control; assay type: ADME, cell-based, Hepatocyte; conditions: read-out: FC
UGT2B7 = experiment: Induction of UGT2B7 mRNA expression in human hepatocytes at 10 uM after 72 hrs by RT-PCR analysis relative to vehicle-treated control; assay type: ADME, cell-based, Hepatocyte; conditions: read-out: FC
MDR1 = experiment: Induction of MDR1 mRNA expression in human hepatocytes at 10 uM after 72 hrs by RT-PCR analysis relative to vehicle-treated control; assay type: ADME, cell-based, Hepatocyte; conditions: read-out: FC
MRP1 = experiment: Induction of MRP1 mRNA expression in human hepatocytes at 10 uM after 72 hrs by RT-PCR analysis relative to vehicle-treated control; assay type: cell-based, Hepatocyte; conditions: read-out: FC
[16] = Chemical stability of the compound in human hepatocyte culture medium assessed as compound remaining at 1 to 50 uM after 24 hrs; assay type: physicochemical; conditions: read-out: Stability
MRP2 = experiment: Induction of MRP2 mRNA expression in human hepatocytes at 10 uM after 72 hrs by RT-PCR analysis relative to vehicle-treated control; assay type: cell-based, Hepatocyte; conditions: read-out: FC
[17] = target: Nuclear receptor subfamily 1 group I member 2 (Homo sapiens, UniProt O75469); experiment: Activation of human PXR expressed in human LS174T cells; assay type: ADME, cell-based
Sequence of Nuclear receptor subfamily 1 group I member 2 (O75469 whole entry): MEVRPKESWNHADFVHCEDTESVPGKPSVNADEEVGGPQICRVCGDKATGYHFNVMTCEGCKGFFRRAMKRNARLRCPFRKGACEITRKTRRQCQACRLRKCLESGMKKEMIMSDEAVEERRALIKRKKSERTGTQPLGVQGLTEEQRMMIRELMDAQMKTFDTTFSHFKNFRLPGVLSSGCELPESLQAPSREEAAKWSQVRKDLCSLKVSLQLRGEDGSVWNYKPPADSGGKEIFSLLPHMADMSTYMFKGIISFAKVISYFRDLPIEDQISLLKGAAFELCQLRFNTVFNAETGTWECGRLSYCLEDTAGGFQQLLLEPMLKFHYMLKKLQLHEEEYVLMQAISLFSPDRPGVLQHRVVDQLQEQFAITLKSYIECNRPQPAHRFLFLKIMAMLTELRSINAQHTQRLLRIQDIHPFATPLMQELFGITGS

[18] = Chemical stability of the compound in PBS buffer assessed as compound remaining at pH 7.4 after 10 mins; assay type: physicochemical; conditions: read-out: Stability
[19] = Total Cmax in human; assay type: ADME, organism-based; conditions: in vivo
Homo sapiens = species: Homo sapiens; experiment: Unbound Cmax in human; assay type: ADME, organism-based; conditions: in vivo

SMILES: CO[C@H]1/C=C/O[C@@]2(C)Oc3c(C)c(O)c4c(O)c(c(/C=N/N5CCN(C)CC5)c(O)c4c3C2=O)NC(=O)/C(C)=C\C=C\[C@H](C)[C@H](O)[C@@H](C)[C@@H](O)[C@@H](C)[C@H](OC(C)=O)[C@@H]1C [RIFAMPIN]
Activity (Hepatocyte [1]): < 50 µM

IC50 (Cytochrome P450 2B6 [2]): > 125 µM
IC50 (Cytochrome P450 2B6 [3]): > 125 µM
IC50 (Cytochrome P450 3A4 [4]): > 125 µM
IC50 (Cytochrome P450 3A4 [5]): > 125 µM
fold induction at 72 h, 10 µM (CYP2B6 [6]): 2.9
Activity (Cytochrome P450 2B6 [7]): 11.3%
fold induction at 72 h, 10 µM (CYP3A4 [8]): 2.1
Activity (Cytochrome P450 3A4 [9]): 5.2%
fold induction at 72 h, 10 µM (CYP2C9 [10]): 1.2
fold induction at 72 h, 10 µM (CYP2B6 [11]): 3.5
Activity (Hepatocyte [12]): 13.9%
fold induction at 72 h, 10 µM (CYP3A4 [13]): 3.4
Activity (Hepatocyte [14]): 7.7%
fold induction at 72 h, 10 µM (CYP2C9 [15]): 1
fold induction at 72 h, 10 µM (CYP1A2): 1.1
fold induction at 72 h, 10 µM (CYP2A6): 2.2
fold induction at 72 h, 10 µM (CYP2C8): 0.8
fold induction at 72 h, 10 µM (CYP2C19): 1.3
fold induction at 72 h, 10 µM (CYP3A5): 1
fold induction at 72 h, 10 µM (CYP2D6): 0.7
fold induction at 72 h, 10 µM (CYP2E1): 0.6
fold induction at 72 h, 10 µM (UGT1A9): 1.4
fold induction at 72 h, 10 µM (UGT2B7): 0.7
fold induction at 72 h, 10 µM (MDR1): 1
fold induction at 72 h, 10 µM (MRP1): 0.8
remaining at 24 h, up to 50 µM [16]: 8%
fold induction at 72 h, 10 µM (MRP2): 0.8
SMILES: C[C@H]1[C@@H](O)O[C@@H]2O[C@@]3(C)CC[C@H]4[C@H](C)CC[C@@H]1[C@@]24OO3 [ARTENIMOL]
Activity (Hepatocyte [1]): 50 µM

SMILES: C[C@@H]1CC[C@H]2[C@@H](C)C(=O)O[C@@H]3O[C@@]4(C)CC[C@@H]1[C@]32OO4 [ARTEMISININ]
EC50 [17]: 30 µM
remaining at 10 min [18]: < 15%
remaining at 24 h, up to 50 µM [16]: 38%
Cmax [19]: 1.6 µM
fCmax (Homo sapiens): 0.58 µM
Activity (Hepatocyte [1]): < 50 µM
